From US20260363243A1 (priority 2022, published 2026)
Where two headings read alike, the source gives them in different places.

What was measured:
cucumber downy mildew [1] = details: Table 3, data from Li, J. L. et al. 2020, cited from earlier work
cucumber downy mildew [2] = assay: Activity in vivo for inhibiting cucumber downy mildew (potting method, greenhouse); details: re-screening, Table 2
Description: The test and investigation method refers to a SOP-SC-1098 cucumber downy mildew potting method in the fungicide section of Standard operation Specification for testing biological Activity of pesticides written by Kang Zhuo and Gu Baogen.

Structure (SMILES) | Control effect (cucumber downy mildew [1]; 0.625 mg/L) | Control effect (cucumber downy mildew [1]; 2.5 mg/L) | Control effect (cucumber downy mildew [1]; 10 mg/L) | Control effect (cucumber downy mildew [2]; 0.02 mg/L) | Control effect (cucumber downy mildew [2]; 0.078 mg/L) | Control effect (cucumber downy mildew [2]; 0.312 mg/L) | Control effect (cucumber downy mildew [2]; 1.25 mg/L)
CC/C=C/CC(=O)N1CCC(c2nc(C3=NOC(c4c(F)cccc4F)C3)cs2)CC1 (centres unmarked) [comparative 2] | D (45% ≤ D < 60%) | B (75% ≤ B < 90%) | A (90% ≤ A ≤ 100%) | – | – | – | –
CC/C(C)=C/CC(=O)N1CCC(c2nc(C3=NOC(c4c(F)cccc4F)C3)cs2)CC1 (centres unmarked) [comparative 3] | E (0% ≤ E < 45%) | C (60% ≤ C < 75%) | A (90% ≤ A ≤ 100%) | – | – | – | –
O=C(CCO)N1CCC(c2nc(C3=NOC(c4c(F)cccc4F)C3)cs2)CC1 (centres unmarked) [comparative 4] | E (0% ≤ E < 45%) | E (0% ≤ E < 45%) | D (45% ≤ D < 60%) | – | – | – | –
O=C(CC1CCCCC1)N1CCC(c2nc(C3=NOC(c4c(F)cccc4F)C3)cs2)CC1 (centres unmarked) [comparative 5] | E (0% ≤ E < 45%) | D (45% ≤ D < 60%) | A (90% ≤ A ≤ 100%) | – | – | – | –
O=C(CN1CCCCC1)N1CCC(c2nc(C3=NOC(c4c(F)cccc4F)C3)cs2)CC1 (centres unmarked) [comparative 6] | E (0% ≤ E < 45%) | E (0% ≤ E < 45%) | E (0% ≤ E < 45%) | – | – | – | –
O=C(CN1CCCC(O)C1)N1CCC(c2nc(C3=NOC(c4c(F)cccc4F)C3)cs2)CC1 (centres unmarked) [comparative 7] | E (0% ≤ E < 45%) | E (0% ≤ E < 45%) | E (0% ≤ E < 45%) | – | – | – | –
Cc1ccc(-c2c(Cl)nc(C#N)n2S(=O)(=O)N(C)C)cc1 [cyazofamid, reference compound] | – | – | – | E (0%≤E<45%) | B (75%≤B<90%) | A (90%≤A≤100%) | A (90%≤A≤100%)
COc1ccc(C(=CC(=O)N2CCOCC2)c2ccc(Cl)cc2)cc1OC [dimethomorph, reference compound] | – | – | – | C (60%≤C<75%) | B (75%≤B<90%) | A (90%≤A≤100%) | A (90%≤A≤100%)
